# Results from paper PMC10247784, “Physiological activation of human and mouse bitter taste receptors by bile acids” (Communications Biology, 2023).
# Test system: HEK293T-Gα16gust44 cells transfected with empty vector (mock)
# Test: Calcium imaging assay (FLIPR), empty vector control (mock)
# Format: cell-based
# Experimental: This set of bile acids was chosen because of their commercial availability in high purities, their diversity within the class of bile acids and their previous detection and quantitation in human blood. Stock solutions were prepared in DMSO.
# As basal growth medium for the HEK293T-Gα16gust44 cell line[17],[59] served Dulbecco’s modified eagle medium (DMEM) (Thermo Fisher Scientific, Darmstadt, Germany) supplemented with 10 % fetal bovine serum (Sigma-Aldrich, Steinheim, Germany), 2 mM L-glutamine (Sigma-Aldrich, Steinheim, Germany), 100 units/ml penicillin (Sigma Aldrich, Steinheim, Germany) and 100 µg/ml streptomycin (Sigma Aldrich, Steinheim, Germany). Growth conditions were 37 °C, 5 % CO2 and saturated air-humidity[60].
# HEK293T-Gα16gust44 cells were seeded on poly-D-lysine (10 µg/ml) coated 96-well plates to reach a confluence of 40-60 % the next day. For transient transfection 150 ng of plasmid DNA containing the receptor of interest and 0.3 µl lipofectamine 2000 (Thermo Fisher Scientific, Darmstadt, Germany) per well were used and transfection took place according to the manual of lipofectamine 2000. […] The empty vector DNA (mock) was transfected as negative control[14],[41].
# Cells were loaded using the calcium-sensitive fluorescent dye Fluo-4-AM (Abcam, Cambridge, Great Britain) in the presence of 2.5 mM probenecid (Sigma-Aldrich, Steinheim, Germany) the day after transfection[13],[41]. 1 h after loading, cells were washed with C1 buffer using a BioTek Cell Washer, incubated in the dark for half an hour and washed again. For automated agonist application and measurement of fluorescence changes, a FLIPR^TETRA device (Molecular Devices, San José, United States) was used. Viability of cells was tested by application of 100 nM Somatostatin 14 (Bachem, Bubendorf, Switzerland)[42].
# Measured data were negative control corrected by subtracting the signal of the mock-transfected cells and exported to Microsoft Excel using the FLIPR software ScreenWorks 4.2. In Microsoft Excel software, standardization of maximum fluorescence intensities to the basal fluorescence and normalization to the buffer-only control was done to calculate the relative fluorescence changes (ΔF/F).
# Initial screening experiments performed in duplicate wells were confirmed by at least one replication and representative traces were selected for display. All dose-response relationships were determined by three independent experiments (biological replicates) performed in duplicates (technical replicates). Threshold concentrations, defined as lowest substance concentrations leading to statistically significant elevated fluorescence changes in receptor-transfected cells compared with empty vector-transfected cells, were determined using SigmaPlot with Student’s t-test to evaluate statistical significance (p < 0.01).
# [1] = Conc. 0,01 mM, Mock (sheet TAS2R39)
# [2] = Conc. 0,1 mM, Mock (sheet TAS2R39)
# [3] = Conc. 0,03 mM, Mock (sheet TAS2R39)
# [4] = Conc. 0,3 mM, Mock (sheet TAS2R39)
# [5] = Conc. 0,001 mM, Mock (sheet TAS2R39)
# [6] = Conc. 1 mM, Mock (sheet TAS2R39)
# [7] = Conc. 0,003 mM, Mock (sheet TAS2R39)
# [8] = Mock (sheet Tas2r123), conc. 0,01 mM
# [9] = Mock (sheet Tas2r123), conc. 0,1 mM
# [10] = Mock (sheet Tas2r123), conc. 0,03 mM
# [11] = Mock (sheet Tas2r123), conc. 0,3 mM
# [12] = Mock (sheet Tas2r123), conc. 0,0003 mM
# [13] = Mock (sheet Tas2r123), conc. 0,001 mM
# [14] = Mock (sheet Tas2r123), conc. 0,003 mM
# [15] = Mock (sheet Tas2r144), conc. 0,01 mM
# [16] = Mock (sheet Tas2r144), conc. 0,1 mM
# [17] = Mock (sheet Tas2r144), conc. 0,03 mM
# [18] = Mock (sheet Tas2r144), conc. 0,3 mM
# [19] = Mock (sheet Tas2r144), conc. 0,003 mM
# [20] = Mock, sheet TAS2R4, conc. 0,01 mM
# [21] = Mock, sheet TAS2R4, conc. 0,1 mM
# [22] = Mock, sheet TAS2R4, conc. 0,03 mM
# [23] = Mock, sheet TAS2R4, conc. 0,3 mM
# [24] = Mock, sheet TAS2R4, conc. 0,0003 mM
# [25] = Mock, sheet TAS2R4, conc. 0,001 mM
# [26] = Mock, sheet TAS2R4, conc. 0,003 mM
# [27] = Mock, sheet TAS2R14, conc. 0,01 mM
# [28] = Mock, sheet TAS2R14, conc. 0,1 mM
# [29] = Mock, sheet TAS2R14, conc. 0,03 mM
# [30] = Mock, sheet TAS2R14, conc. 0,3 mM
# [31] = Mock, sheet TAS2R14, conc. 0,001 mM
# [32] = Mock, sheet TAS2R14, conc. 1 mM
# [33] = Mock, sheet TAS2R14, conc. 0,003 mM
# [34] = Mock, sheet Tas2r108, conc. 0,01 mM
# [35] = Mock, sheet Tas2r108, conc. 0,1 mM
# [36] = Mock, sheet Tas2r108, conc. 0,03 mM
# [37] = Mock, sheet Tas2r108, conc. 0,3 mM
# [38] = Mock, sheet Tas2r108, conc. 0,001 mM
# [39] = Mock, sheet Tas2r108, conc. 1 mM
# [40] = Mock, sheet Tas2r108, conc. 0,003 mM
# [41] = Mock, sheet Tas2r117, conc. 0,01 mM
# [42] = Mock, sheet Tas2r117, conc. 0,1 mM
# [43] = Mock, sheet Tas2r117, conc. 0,03 mM
# [44] = Mock, sheet Tas2r117, conc. 0,3 mM
# [45] = Mock, sheet Tas2r117, conc. 0,0003 mM
# [46] = Mock, sheet Tas2r117, conc. 0,001 mM
# [47] = Mock, sheet Tas2r117, conc. 0,003 mM
# [48] = conc. 0,01 mM, Mock (sheet TAS2R1)
# [49] = conc. 0,1 mM, Mock (sheet TAS2R1)
# [50] = conc. 0,03 mM, Mock (sheet TAS2R1)
# [51] = conc. 0,3 mM, Mock (sheet TAS2R1)
# [52] = conc. 0,001 mM, Mock (sheet TAS2R1)
# [53] = conc. 0,003 mM, Mock (sheet TAS2R1)
smiles,measurement,setting,value
"C[C@H](CCC(=O)O)[C@H]1CC[C@H]2[C@@H]3[C@H](O)C[C@@H]4C[C@H](O)CC[C@]4(C)[C@H]3C[C@H](O)[C@]12C [Cholic Acid, cholic acid]",Δ F/F,[1],-0.01821
same,Δ F/F,[2],-0.02224
same,Δ F/F,[3],-0.01697
same,Δ F/F,[4],-0.04388
same,Δ F/F,[5],-0.01201
same,Δ F/F,[6],-0.08707
same,Δ F/F,[7],-0.01404
same,Δ F/F,[8],-0.0003322
same,Δ F/F,[9],-0.0005726
same,Δ F/F,[10],-0.0005964
same,Δ F/F,[11],0.0008115
same,Δ F/F,[12],-0.001363
same,Δ F/F,[13],-0.001187
same,Δ F/F,[14],-0.0002243
same,Δ F/F,"Mock (sheet Tas2r126), conc. 0,01 mM",-0.02005
same,Δ F/F,"Mock (sheet Tas2r126), conc. 0,1 mM",-0.02997
same,Δ F/F,"Mock (sheet Tas2r126), conc. 0,03 mM",-0.01829
same,Δ F/F,"Mock (sheet Tas2r126), conc. 0,3 mM",-0.04711
same,Δ F/F,"Mock (sheet Tas2r126), conc. 0,001 mM",-0.01156
same,Δ F/F,"Mock (sheet Tas2r126), conc. 1 mM",-0.07412
same,Δ F/F,"Mock (sheet Tas2r126), conc. 0,003 mM",-0.01876
same,Δ F/F,[15],0.0002394
same,Δ F/F,[16],-0.0009617
same,Δ F/F,[17],0.0001706
same,Δ F/F,[18],2.3167e-5
same,Δ F/F,[19],-0.001282
same,Δ F/F,[20],-0.001675
same,Δ F/F,[21],0.0001605
same,Δ F/F,[22],-0.001772
same,Δ F/F,[23],0.0004382
same,Δ F/F,[24],0.001019
same,Δ F/F,[25],-0.0001368
same,Δ F/F,[26],-0.001078
same,Δ F/F,[27],-0.01829
same,Δ F/F,[28],-0.02451
same,Δ F/F,[29],-0.01803
same,Δ F/F,[30],-0.04097
same,Δ F/F,[31],-0.0206
same,Δ F/F,[32],-0.06455
same,Δ F/F,[33],-0.02081
same,Δ F/F,"Mock, sheet Tas2r105, conc. 0,01 mM",-0.01514
same,Δ F/F,"Mock, sheet Tas2r105, conc. 0,1 mM",-0.02586
same,Δ F/F,"Mock, sheet Tas2r105, conc. 0,03 mM",-0.01353
same,Δ F/F,"Mock, sheet Tas2r105, conc. 0,3 mM",-0.04947
same,Δ F/F,"Mock, sheet Tas2r105, conc. 0,001 mM",-0.01259
same,Δ F/F,"Mock, sheet Tas2r105, conc. 1 mM",-0.08731
same,Δ F/F,"Mock, sheet Tas2r105, conc. 0,003 mM",-0.01645
same,Δ F/F,[34],-0.0241
same,Δ F/F,[35],-0.03289
same,Δ F/F,[36],-0.0233
same,Δ F/F,[37],-0.05172
same,Δ F/F,[38],-0.01866
same,Δ F/F,[39],-0.07524
same,Δ F/F,[40],-0.01483
same,Δ F/F,[41],-0.001513
same,Δ F/F,[42],-0.0006881
same,Δ F/F,[43],-0.0006551
same,Δ F/F,[44],-0.001135
same,Δ F/F,[45],-0.002036
same,Δ F/F,[46],-0.0005906
same,Δ F/F,[47],-0.001196
same,Δ F/F,[48],-0.002604
same,Δ F/F,[49],-0.002131
same,Δ F/F,[50],-0.002188
same,Δ F/F,[51],-0.001094
same,Δ F/F,[52],-0.001978
same,Δ F/F,[53],-0.003067
"C[C@H](CCC(=O)O)[C@H]1CC[C@H]2[C@@H]3[C@@H](O)C[C@@H]4C[C@H](O)CC[C@]4(C)[C@H]3CC[C@]12C [Ursodeoxycholic Acid, ursodeoxycholic acid]",Δ F/F,[8],-0.001066
same,Δ F/F,[10],-0.001504
same,Δ F/F,"Mock (sheet Tas2r123), conc. 0,0001 mM",-0.001573
same,Δ F/F,[12],-0.001292
same,Δ F/F,[13],-0.005211
same,Δ F/F,[14],-0.001793
same,Δ F/F,[20],-0.0004613
same,Δ F/F,[22],-0.0005491
same,Δ F/F,"Mock, sheet TAS2R4, conc. 0,00003 mM",-0.0004806
same,Δ F/F,"Mock, sheet TAS2R4, conc. 0,0001 mM",-0.001738
same,Δ F/F,[24],0.0005593
same,Δ F/F,[25],-0.001147
same,Δ F/F,[26],-0.0007234
same,Δ F/F,[48],0.000483
same,Δ F/F,[50],-0.001233
same,Δ F/F,"conc. 0,0001 mM, Mock (sheet TAS2R1)",0.0008084
same,Δ F/F,"conc. 0,0003 mM, Mock (sheet TAS2R1)",-0.0004379
same,Δ F/F,[52],-0.001051
same,Δ F/F,[53],-0.001084
"C[C@H](CCC(=O)NCCS(=O)(=O)O)[C@H]1CC[C@H]2[C@@H]3[C@H](O)C[C@@H]4C[C@H](O)CC[C@]4(C)[C@H]3C[C@H](O)[C@]12C [Taurocholic Acid, taurocholic acid]",Δ F/F,[1],-0.01563
same,Δ F/F,[2],-0.02822
same,Δ F/F,[3],-0.0235
same,Δ F/F,[4],-0.04268
same,Δ F/F,[5],-0.0133
same,Δ F/F,[6],-0.07998
same,Δ F/F,[7],-0.01654
same,Δ F/F,[8],-0.001211
same,Δ F/F,[9],-8.418e-5
same,Δ F/F,[10],-0.0003225
same,Δ F/F,[11],-0.001149
same,Δ F/F,[13],-0.001993
same,Δ F/F,[14],-0.001321
same,Δ F/F,[15],0.001108
same,Δ F/F,[16],0.003486
same,Δ F/F,[17],0.0001367
same,Δ F/F,[18],-0.000351
same,Δ F/F,[19],-0.001298
same,Δ F/F,[20],-0.0002235
same,Δ F/F,[21],-0.0008729
same,Δ F/F,[22],6.044e-5
same,Δ F/F,[23],0.0004439
same,Δ F/F,[25],-0.0007938
same,Δ F/F,[26],-0.0007144
same,Δ F/F,[27],-0.01747
same,Δ F/F,[28],-0.02159
same,Δ F/F,[29],-0.01682
same,Δ F/F,[30],-0.04976
same,Δ F/F,[31],-0.01145
same,Δ F/F,[32],-0.08511
same,Δ F/F,[33],-0.01455
same,Δ F/F,"Mock, sheet TAS2R46, conc. 0,01 mM",-0.0238
same,Δ F/F,"Mock, sheet TAS2R46, conc. 0,1 mM",-0.03213
same,Δ F/F,"Mock, sheet TAS2R46, conc. 0,03 mM",-0.02754
same,Δ F/F,"Mock, sheet TAS2R46, conc. 0,3 mM",-0.04297
same,Δ F/F,"Mock, sheet TAS2R46, conc. 0,001 mM",-0.01362
same,Δ F/F,"Mock, sheet TAS2R46, conc. 1 mM",-0.07821
same,Δ F/F,"Mock, sheet TAS2R46, conc. 0,003 mM",-0.02261
same,Δ F/F,[34],-0.02048
same,Δ F/F,[35],-0.02439
same,Δ F/F,[36],-0.01669
same,Δ F/F,[37],-0.04405
same,Δ F/F,[38],-0.01481
same,Δ F/F,[39],-0.07176
same,Δ F/F,[40],-0.01975
same,Δ F/F,[41],0.0004005
same,Δ F/F,[42],0.0008049
same,Δ F/F,[43],0.000104
same,Δ F/F,[44],-0.0008737
same,Δ F/F,[45],-0.0001935
same,Δ F/F,[46],-0.001035
same,Δ F/F,[47],-0.0005321
same,Δ F/F,[48],-0.002439
same,Δ F/F,[49],-0.002601
same,Δ F/F,[50],-0.002464
same,Δ F/F,[51],-0.001298
same,Δ F/F,[52],-0.001546
same,Δ F/F,[53],-0.002596
